# Measurements published in patent US6649635B2, “Heteroarylcarboxamide compounds active against protein tyrosine kinase related disorders” (Sugen, Inc., priority 1997, dated 2003).
# Like-named read-outs stand apart in the source and are kept apart here.
# Experiments:
# human EGF receptor = target: T1, human EGF receptor (Homo sapiens, UniProt P00533); assay: EGF-induced DNA synthesis (BrdU incorporation) in 3T3/EGFRc7 cells; assay type: cell-based; details: read-out: EGF-induced (inhibition of DNA synthesis)
# T1 construct: expressed in transfected cells; host or cells: NIH3T3 clone C7 (3T3/EGFRc7)
# Protocol: (§1) The following example illustrates the ability of the compounds of the invention to inhibit FGFR-stimulated and PDGFR-stimulated DNA synthesis in cells. DNA synthesis is required for many of the activities of FGFP and PDGFR including, but not limited to, cell proliferation. Uridine is added in one set of samples to overcome any contribution made by inhibition of DHOD and just evaluate the inhibition of PDGFR or FGFR signaling. (See Greene, et al., Biochem. Pharmacol., 50(6):861 (1995), Nair, et al., Immunology Letters, 47:171 (1995)).
# (§2) (1) EGF: mouse EGF, 201; Toyobo,Co., Ltd. Japan; PDGF, Boehringer Mannheim, Germany; FGF, Gibco.
# (§3) (2) BrdU Labeling Reagent: 10 mM, in PBS (pH7.4) Cat. No. 1 647 229, Boehringer Mannheim, Germany.
# (§4) (3) FixDenat: fixation solution (ready to use), Cat. No. 1 647 229, Boehringer Mannheim, Germany.
# (§5) (4) Anti-BrdU-POD: mouse monoclonal antibody conjugated with peroxidase, Cat. No. 1 647 229, Boehringer Mannheim, Germany.
# (§6) (5) TMB Substrate Solution: tetramethylbenzidine (TMB), ready to use, Cat. No. 1 647 229, Boehringer Mannheim, Germany.
# (§7) (6) PBS Washing Solution: 1×phosphate buffered saline, pH 7.4
# (§8) (7) Albumin, Bovine (BSA): fraction V powder; A-8551, Sigma Chemical Co., USA.
# (§9) (8) NIH3T3 clone C7 (3T3/EGFRc7)(Honegger et al., Cell 51:199-209, 1987)) engineered to over-express human EGF receptor.
# (§10) These cells natively express FGFR and PDGFR.
# (§11) (1) 3T3/EGFRc7 cells were seeded at 8000 cells/well in DMEM, 10% CS, 2 mM Gln in a 96 well plate. Cells are incubated overnight at 37 degrees C. in 5% CO2.
# (§12) (2) After 24 hours, the cells were washed with PBS, and then serum starved in serum free medium (0%CS DMEM with 0.1% BSA) for 24 hours.
# (§13) (3) On day 3, ligand (2n EGF or 1.5 nM FGF or 3.8 nM PDGF) prepared in DMEM with 0.1% BSA and 30 μM (final concentration) uridine) and test compound was added to the cells simultaneously. […]
# (§14) (10) The absorbance of the samples was measured at 410 nm (in “dual wavelength” mode with a filter reading at 490 nm, as a reference wavelength) on a Dynatech ELISA plate reader.
# PDGFR = assay: PDGF-induced DNA synthesis (BrdU incorporation) in 3T3/EGFRc7 cells; assay type: cell-based; details: 3.8 nM PDGF, read-out: PDGF-induced (inhibition of DNA synthesis)
# Protocol: as §1, §2, §3, §4, §5, §6, §7, §8, §9, §10, §11, §12, §13, §14
# FGFR = assay: FGF-induced DNA synthesis (BrdU incorporation) in 3T3/EGFRc7 cells; assay type: cell-based
# Protocol: as §1, §2, §3, §4, §5, §6, §7, §8, §9, §10, §11, §12
# (3) On day 3, ligand (2n EGF or 1.5 nM FGF or 3.8 nM PDGF) prepared in DMEM with 0.1% BSA and 30 μM (final concentration) uridine) and test compound was added to the cells simultaneously.
# The negative control wells received serum free DMEM with 0.1% BSA only; the positive control cells received ligand but no test compound. Test compound was prepared in serum free DMEM with ligand in a 96 well plate, and serially diluted for 7 test concentrations.
# (4) After 20 hours of ligand activation, diluted BrdU labeling reagent (1:100 in DMEM, 0.1% BSA) was added and the cells were incubated with BrdU (final concentration=10 μM) for 1.5 hours.
# (5) After incubation with labeling reagent, the medium was removed by decanting and tapping the inverted plate on a paper towel. FixDenat solution was added (50 μl/well) and the plates incubated at room temperature for 45 minutes on a plate shaker.
# (6) The FixDenat solution was thoroughly removed by decanting and tapping the inverted plate on a paper towel. Milk is added (5% dehydrated milk in PBS, 200 μl/well) as a blocking solution and the plate was incubated for 30 minutes at room temperature on a plate shaker.
# (7) The blocking solution was removed by decanting and the wells were washed once with PBS. Anti-BrdU-POD solution (1:100 dilution in PBS, 1% BSA) was added (100 μl/well) and the plate was incubated for 90 minutes at room temperature on a plate shaker.
# (8) The antibody conjugate was thoroughly removed by decanting and rinsing the wells 5 times with PBS, and the plate dried by inverting and tapping on a paper towel.
# (9) TMB substrate solution was added (100 μl/well) and incubated for 20 minutes at room temperature on a plate shaker until color development was sufficient for photometric detection.
# as §14
# C6 cells (glioblastoma) = assay: Subcutaneous xenograft experiment, inhibition of tumor growth in vivo; details: for inhibition (% of control): 30 mg/kg/day IP in DMSO, tumor volume
# Protocol: Female athymic mice (BALB/c, nu/nu) were obtained from Simonsen Laboratories (Gilroy, Calif.). All animals were maintained under clean-room conditions in Micro-isolator cages with Alpha-dri bedding. They received sterile rodent chow and water ad libitum.
# Cell lines were grown in Ham's F10 plus 5% fetal bovine serum (FBS) and 2 mM glutamine (GLN). All cell culture media, glutamine, and fetal bovine serum were purchased from Gibco Life Technologies (Grand Island, N.Y.) unless otherwise specified. All cells were grown in a humid atmosphere of 90-95% air and 5-10% CO2 at 37° C. All cell lines were routinely subcultured twice a week and were negative for mycoplasma as determined by the Mycotect method (Gibco).
# Cells were harvested at or near confluency with 0.05% Trypsin-EDTA and pelleted at 450×g for 10 min. Pellets were resuspended in sterile PBS or media (without FBS) and the cells were implanted into the hindflank of the mice (8-10 mice per group 3×10^6 cells/animal). Tumor growth was measured over 3 weeks using venier calipers. Tumor volumes were calculated as a product of length×width×height unless otherwise indicated. P values were calculated using the Students' t-test. Cmpd. 1 in 50 μL excipient (DMSO) was delivered by IP bolus injection daily.
# [1] = 1.5 nM FGF, Table 2 experiment, read-out: FGF-induced (inhibition of DNA synthesis)
# [2] = FGF induced DNA synthesis, with added uridine (30 μM), read-out: IC50 + uridine
# [3] = FGF induced DNA synthesis, without added uridine, read-out: IC50 − uridine
# T1 sequence (P00533 25-1210): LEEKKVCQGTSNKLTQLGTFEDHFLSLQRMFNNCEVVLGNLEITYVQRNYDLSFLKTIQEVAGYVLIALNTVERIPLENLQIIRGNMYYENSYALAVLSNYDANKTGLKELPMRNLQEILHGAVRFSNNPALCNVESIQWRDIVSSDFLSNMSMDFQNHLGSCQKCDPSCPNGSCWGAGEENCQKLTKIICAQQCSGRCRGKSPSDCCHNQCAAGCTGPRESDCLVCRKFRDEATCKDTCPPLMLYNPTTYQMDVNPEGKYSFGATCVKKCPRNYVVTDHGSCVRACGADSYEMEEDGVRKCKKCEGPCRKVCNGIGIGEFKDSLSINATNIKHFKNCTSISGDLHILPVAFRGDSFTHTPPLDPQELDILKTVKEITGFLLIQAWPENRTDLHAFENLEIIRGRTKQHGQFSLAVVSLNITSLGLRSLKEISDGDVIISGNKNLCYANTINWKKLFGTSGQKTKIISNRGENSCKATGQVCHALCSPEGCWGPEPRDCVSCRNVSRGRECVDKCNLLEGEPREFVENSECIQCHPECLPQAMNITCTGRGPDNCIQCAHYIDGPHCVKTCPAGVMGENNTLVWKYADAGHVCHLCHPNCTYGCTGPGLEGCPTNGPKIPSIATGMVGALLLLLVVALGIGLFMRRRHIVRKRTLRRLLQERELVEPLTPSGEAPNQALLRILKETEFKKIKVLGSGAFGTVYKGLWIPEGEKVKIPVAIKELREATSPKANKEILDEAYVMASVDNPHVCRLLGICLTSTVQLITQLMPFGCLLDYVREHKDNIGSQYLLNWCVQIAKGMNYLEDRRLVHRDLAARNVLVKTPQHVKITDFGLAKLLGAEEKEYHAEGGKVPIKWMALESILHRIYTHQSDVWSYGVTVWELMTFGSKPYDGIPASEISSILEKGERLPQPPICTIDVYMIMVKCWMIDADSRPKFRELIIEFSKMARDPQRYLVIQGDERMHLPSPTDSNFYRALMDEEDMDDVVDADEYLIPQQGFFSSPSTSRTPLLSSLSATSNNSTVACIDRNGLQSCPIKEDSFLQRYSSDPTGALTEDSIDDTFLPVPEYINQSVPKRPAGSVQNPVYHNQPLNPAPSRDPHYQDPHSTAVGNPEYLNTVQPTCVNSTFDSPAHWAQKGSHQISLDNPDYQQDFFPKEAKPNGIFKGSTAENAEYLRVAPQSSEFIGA
SMILES,IC50 (human EGF receptor) [µM],IC50 (PDGFR) [µM],IC50 (FGFR; [1]) [µM],IC50 (FGFR; [2]) [µM],IC50 (FGFR; [3]) [µM],further results
"Cc1nocc1C(=O)Nc1ccc(C(F)(F)F)cc1 [cmpd. 1, 3-Methyl-4-[4-(trifluoromethyl)phenyl-aminocarbonyl]isoxazole]",> 100,90,65,70,85,"toxic effect at the dose tested (C6 cells (glioblastoma); 30 mg/kg/day IP, xenograft mice): no toxic effect; mortality (C6 cells (glioblastoma); Day 8, 30 mg/kg/day IP): 0; inhibition (% of control) (C6 cells (glioblastoma); Day 8): 34 % of control; mortality (C6 cells (glioblastoma); Day 10, 30 mg/kg/day IP): 0; inhibition (% of control) (C6 cells (glioblastoma); Day 10): 42 % of control; mortality (C6 cells (glioblastoma); Day 13, 30 mg/kg/day IP): 0; inhibition (% of control) (C6 cells (glioblastoma); Day 13): 48 % of control; mortality (C6 cells (glioblastoma); Day 15, 30 mg/kg/day IP): 0; inhibition (% of control) (C6 cells (glioblastoma); Day 15): 47 % of control; mortality (C6 cells (glioblastoma); Day 17, 30 mg/kg/day IP): 0; inhibition (% of control) (C6 cells (glioblastoma); Day 17): 50 % of control; mortality (C6 cells (glioblastoma); Day 20, 30 mg/kg/day IP): 0; inhibition (% of control) (C6 cells (glioblastoma); Day 20): 52 % of control"
"Cc1n[nH]cc1C(=O)Nc1ccc(C(F)(F)F)cc1 [cmpd. 2, 3-Methyl-4-[4-(trifluoromethyl)phenylaminocarbonyl]pyrazole]",> 100,95,> 100,,,
Cc1c(-c2ccc(-c3ccccc3F)cc2)nc2ccc(F)cc2c1C(=O)O [brequinar],,,,> 100,1.6,
C/C(O)=C(\C#N)C(=O)Nc1ccc(C(F)(F)F)cc1 [A771726],,,,> 100,20,
"Cc1oncc1C(=O)Nc1ccc(C(F)(F)F)cc1 [leflunomide, 4-(-(4′-trifluoromethylphenyl)carboxamido)-5-methyl-isoxazole]",,,,80,20,
"Cc1noc(C)c1C(=O)Nc1ccc(C(F)(F)F)cc1 [cmpd. 21, 3,5-Dimethyl-4-[4-(trifluoromethyl)phenylaminocarbonyl]isoxazole]",> 100,> 100,> 100,,,
